Read-outs that look alike come from different tables or passages of the source.
How the values were obtained:
[1] = tested on: SKOv-3 human ovarian cancer cell line; test: SRB cytotoxicity assay, SKOv-3; type: cell-based; settings: Homo sapiens, SK-OV-3; Table 8
Description: (§1) For in vitro cytotoxicity screening, 1000 to 5000 cells were plated into each well of 96-well plates depending on growth rate, and exposed to different concentrations of a test compound for 96 h in three to five replicates. All the compounds were dissolved in dimethyl sulfoxide at 5 to 20 mM, and diluted to desired concentrations in complete culture medium. Cell numbers at the end of the drug treatment were measured by the SRB assay (Gududuru et al., “Synthesis and Biological Evaluation of Novel Cytotoxic Phospholipids for Prostate Cancer,” Bioorg. Med. Chem. Lett. 14:4919-4923 (2004); Rubinstein et at., “Comparison of in vitro Anticancer-Drug-Screening Data Generated with a Tetrazolium Assay Versus a Protein Assay Against a Diverse Panel of Human Tumor Cell Lines,” J. Naatl, Cancer Inst. 82:1113-1118 (1990), each of which is hereby incorporated by reference in its entirety). Briefly, the cells were fixed with 10% of trichloroacetic acid, stained with 0.4% SRB, and the absorbances at 540 nm was measured using a plate reader (DYNEX Technologies, Chantilly, Va.).
(§2) In vitro cytotoxicity assay was performed by the same sulforhodamine B (SRB) assay (described above). The compounds shown in Table 8 below where tested for activity against the breast cancer and ovarian cancer cell lines.

[2] = tested on: PPC-1 human prostate cancer cells; test: SRB cytotoxicity assay, PPC-1; type: cell-based; settings: Homo sapiens, PPC-1; Example 10 table; 96 h; read-out: IC50 PPC-1
Procedure, shortened: (§3)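 Cells seeded at 1000–5000 per well according to growth rate were treated with compound at 0 to 100 μM for 96 h, in three to five replicates. Surviving cell number was then determined by sulforhodamine B staining after trichloroacetic acid fixation, with absorbance read at 540 nm.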

[3] = tested on: PC-3 human prostate cancer cells; test: SRB cytotoxicity assay, PC-3; type: cell-based; settings: Homo sapiens; Example 10 table; 96 h; read-out: IC50 PC-3
Procedure, shortened: as §3

PC-3 cells = test: Apoptosis sandwich ELISA (DNA-histone complex), PC-3; type: cell-based, human
Description: (§4) A sandwich ELISA (Roche, Mannheim, Germany) utilizing monoclonal antibodies specific for DNA and histones was used to quantify degree of apoptosis induced by the analogs after 72 h exposure. This assay measures DNA-histone complexes (mono- and oligonucleosomes) released into cytoplasm from the nucleus during apoptosis. RH7777 cells were employed because of nonspecific cytotoxicity of compound 4 in receptor-negative cells as well as receptor-positive prostate cancer cells.
(§5) From the LPL receptor mRNA expression studies (Table 2), it was evident that these cell lines serve as an excellent model system to explore the effects of LPL receptor. Given the structural similarity of SAPs to ceramide (and the known ability of ceramide to induce apoptosis), it was then determined whether the antiproliferative effects of thiazolidine analogs were mediated via apoptotla events. The ability of the analogs to induce apoptosis in LNCaP, PC-3, and RH7777 cells was examined using a quantitative sandwich ELISA that measures DNA-histone complex released during apoptosis. The enrichment factor calculated (as ratio of OD405 in treated and un-treated cells) provides a quantitative assessment of the degree of apoptosis induced. Initially, only two compounds (4 & 5) were used for this study. Apoptotic activity of analog (compound 4) was selective in prostate cancer cells despite nonselective cytotoxicity in RH7777 negative control cells (see Table 5 below). Analog compound 5 induced apoptosis in PC-3 and LNCaP cells, but to a lesser extent in PC-3 cells perhaps due to lower potency in this cell line.

[4] = tested on: TSU-Pr1 human prostate cancer cells; test: SRB cytotoxicity assay, TSU-Pr1; type: cell-based; settings: Homo sapiens, TSU-Pr1; Example 10 table; 96 h; read-out: IC50 TSU-Pr1
Procedure, shortened: as §3

LNCaP cells [5] = test: Apoptosis sandwich ELISA (DNA-histone complex), LNCaP; type: cell-based, human
Description: as §4, §5

[6] = tested on: OVCAR-3 human ovarian cancer cell line; test: SRB cytotoxicity assay, OVCAR-3; type: cell-based; settings: Homo sapiens, OVCAR-3; Table 8
Description: as §1, §2

[7] = tested on: DU-145 human prostate cancer cells; test: SRB cytotoxicity assay, DU-145; type: cell-based; settings: Homo sapiens, DU-145, read-out: IC50 DU-145; Example 10 table; 96 h
Procedure, shortened: as §3

RH7777 cells = test: Apoptosis sandwich ELISA (DNA-histone complex), RH7777; type: cell-based, rat
Description: as §4, §5

[8] = tested on: RH7777 rat hepatoma cells; test: SRB cytotoxicity assay, RH7777 control cell line; type: cell-based; settings: for IC50: Rattus norvegicus, RH7777, Example 10 table, 0 to 100 μM for 96 h, read-out: IC50 RH7777
Procedure, shortened: as §3

LNCaP cells [9] = test: DNA fragmentation by agarose gel electrophoresis; type: cell-based, human; settings: treated 24 to […], FIGS. 4A-B
Description: In FIG. 4B, the dose and exposure time are indicated for compound 5 as follows: lane 1, 100 bp DNA marker; lane 2, […] for 24 h; lane 3, 5 μM for 48 h; lane 4, 5 μM for 72 h; lane 5, 5 μM for 96 h; lane 6, 3 μM for 96 h; lane 7, 8 μM for 48 h; and lane 8, 8 μM for 72 h;

[10] = tested on: CaOv-3 human ovarian cancer cell line; test: SRB cytotoxicity assay, CaOv-3; type: cell-based; settings: Homo sapiens, Caov-3; Table 8
Description: as §1, §2

[11] = tested on: LNCaP human prostate cancer cells; test: SRB cytotoxicity assay, LNCaP; type: cell-based; settings: Homo sapiens, LNCaP; Example 10 table; 96 h; read-out: IC50 LNCaP
Procedure, shortened: as §3

[12] = tested on: human breast cancer cell line (MCF-7); test: SRB cytotoxicity assay, MCF-7; type: cell-based; settings: Homo sapiens, MCF7, read-out: IC50 MCF-7
Procedure, shortened: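 Cells plated at 1000–5000 per well by growth rate and exposed to compound (0 to 100 μM) for 96 h, three to five replicates. Cell number read by sulforhodamine B: TCA fixation, 0.4% SRB staining, absorbance at 540 nm.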

[13] = Table 8, breast cancer cell line

SMILES | IC50 [1] | IC50 [2] | IC50 [3] | Apoptosis enrichment factor (ratio of OD405 in treated and un-treated cells) (PC-3 cells; 2 μM for 72 h) | Apoptosis enrichment factor (ratio of OD405 in treated and un-treated cells) (PC-3 cells; 5 μM for 72 h) | Apoptosis enrichment factor (ratio of OD405 in treated and un-treated cells) (PC-3 cells; 10 μM for 72 h) | IC50 [4] | Apoptosis enrichment factor (ratio of OD405 in treated and un-treated cells) (LNCaP cells [5]; 2 μM for 72 h) | Apoptosis enrichment factor (ratio of OD405 in treated and un-treated cells) (LNCaP cells [5]; 5 μM for 72 h) | Apoptosis enrichment factor (ratio of OD405 in treated and un-treated cells) (LNCaP cells [5]; 10 μM for 72 h) | IC50 [6] | IC50 [7] | IC50 [8] | DNA fragmentation (apoptosis) (LNCaP cells [9]) | IC50 [10] | IC50 [11] | IC50 ([12]; Example 10 table, 96 h) | IC50 [12, 13] | also measured
CCCCCCCCCCCCCCNC(=O)[C@@H]1CSC(c2ccccc2)N1.Cl (mixture of isomers) [Compound 4-HCI, (2RS, 4R)-2-Phenylthiazolidine-4-carboxylic acid tetradecylamide Hydrochloride] | 2.1 µM | 1.3 µM | 3 µM | 1.8 | 18.7 | 54.0 | 2 µM | 14.1 | 75.4 | 80.7 | 1.6 µM | 2.4 µM | 3.4 µM | induce cell apoptosis | 13.9 µM | 1.4 µM | 4.2 µM | 2.4 µM | Apoptosis enrichment factor (ratio of OD405 in treated and un-treated cells) (RH7777 cells; 2 μM for 72 h): 2.6; Apoptosis enrichment factor (ratio of OD405 in treated and un-treated cells) (RH7777 cells; 5 μM for 72 h): 3.2; Apoptosis enrichment factor (ratio of OD405 in treated and un-treated cells) (RH7777 cells; 10 μM for 72 h): 2.5; Fold less selective against RH7777 cell line than compound 5 [8]: 8 fold
CCCCCCCCCCCCCCCCCCNC(=O)[C@@H]1CSC(c2ccccc2)N1.Cl (mixture of isomers) [Compound 5-HCI, (2RS, 4R)-2-Phenylthiazolidine-4-carboxylic acid octadecylamide Hydrochloride] | 8.5 µM | 2 µM | 7.8 µM | 1.4 | 2.3 | 3.4 | 5 µM | 4.5 | 45.2 | 37.1 | 4.5 µM | 5.4 µM | 25.6 µM | induce cell apoptosis | 2.5 µM | 2.1 µM | 4.2 µM | 4.2 µM | Apoptosis enrichment factor (ratio of OD405 in treated and un-treated cells) (PC-3 cells; 20 μM for 72 h): 12.7; Apoptosis enrichment factor (ratio of OD405 in treated and un-treated cells) (LNCaP cells [5]; 20 μM for 72 h): 26.1

— patent publication US20060014740A1 (priority 2003, published 2006)
